Test results reported in BindingDB's records for patent US20240092761 (Iambic Therapeutics, 2024).

Columns and labels:
[1] = target: Cyclin-dependent kinase/G2/mitotic-specific cyclin- 1 (Homo sapiens, UniProt P06493); test: CDK1/Cyclin B1 ADP-Glo Kinase Assay
Procedure: The luminescent signal generated is proportional to the ADP concentration produced and is correlated with the kinase activity. CDK1/Cyclin B1 was purchased from Carna (Cat 04-102). Typical reaction solutions (10 uL final reaction volume) contained 2% DMSO (f inhibitor), 10 mM MgCl2, 1 mM EGTA, 0.05% BSA, 2 mM DTT, 80 uM ATP (ATP Km=78.6 uM), 0.01% Brig-35, 0.75 uM substrate, and 4.917 nM CDK1/Cyclin Bl enzyme complex in 50 mM HEPES buffer at pH 7.5. The assay was initiated with the addition of ATP-containing substrate solution, following a 30-minute pre-incubation of enzyme and inhibitor at room temperature in the reaction mixture. The reaction was stopped after 90 minutes at room temperature by the addition of 10 uL of ADP-GLO Reagent. After a 90 minute incubation, 20 uL of Kinase Detection Reagent was added. Samples were incubated for 40 minutes, after which plate well luminescence was measured on a Envision microplate reader.

[2] = target: Cyclin-dependent kinase 4/G1/S-specific cyclin-D1 (Homo sapiens, UniProt P11802); test: CDK4/Cyclin D1 Mobility Shift Assay (MSA)
Procedure: CDK4/Cyclin D1 catalyzes the production of ADP from ATP that accompanies the phosphoryl transfer to the substrate peptide 5-FAM-Dyrktide (5-FAM-RRRFRPASPLRGPPK) (Perkin Elmer Peptide 34). The mobility shift assay (MSA) electrophoretically separates the fluorescently labelled peptides (substrate and phosphorylated product) following the kinase reaction. Both substrate and product are measured, and the ratio of these values is used to generate % conversion of substrate to product by the LabChip EZ Reader. Typical reaction solutions contained 2% DMSO (+/−inhibitor), 10 mM MgCl2, 1 mM EGTA, 0.05% BSA, 2 mM DTT, 0.2 mM ATP, 0.01% Brig-35, 1.5 uM 5-FAM-Dyrktide, 2.5 nM CDK4/Cyclin D1 in 50 mM HEPES buffer at pH 7.5. The reaction was initiated with the addition of substrate solution, following a 30-minute pre-incubation of enzyme and inhibitor at 22° C. in the reaction mix. The reaction was stopped after 180 minutes by the addition of 75 uL of 500 mM EDTA and measured on a Perkin Elmer EZ reader instrument.

[3] = target: Cyclin-dependent kinase 2/G1/S-specific cyclin-E1 (Homo sapiens, UniProt P24941); test: CDK2/Cyclin E1 Full Length ADP-Glo Kinase Assay
Procedure: ADP-Glo is performed in 2 steps upon completion of kinase reaction: a combined termination of kinase reaction and depletion of remaining ATP in the first step, and conversion of generated ADP to ATP and the newly produced ATP to light output using luciferase/luciferin reaction in the second step. The luminescent signal generated is proportional to the ADP concentration produced and is correlated with the kinase activity. CDK2/Cyclin E1 was purchased from Eurofins (Cat 14-475M). Typical reaction solutions (10 uL final reaction volume) contained 2% DMSO (f inhibitor), 10 mM MgCI2, 1 mM EGTA, 0.05% BSA, 2 mM DTT, 20 uM ATP (ATP Km=64.78 uM), 0.01% Brig-35, 0.75 uM substrate, and 0.328 nM wild-type full length CDK2/Cyclin E1 enzyme complex in 50 mM HEPES buffer at pH 7.5. The assay was initiated with the addition of ATP-containing substrate solution, following a 30-minute pre-incubation of enzyme and inhibitor at room temperature in the reaction mixture. The reaction was stopped after 90 minutes at room temperature by the addition of 10 uL of ADP-GLO Reagent. After a 90 minute incubation, 20 uL of Kinase Detection Reagent was added. Samples were incubated for 40 minutes, after which plate well luminescence was measured on a Envision microplate reader.

Sequence of Cyclin-dependent kinase/G2/mitotic-specific cyclin- 1 (P06493 whole entry): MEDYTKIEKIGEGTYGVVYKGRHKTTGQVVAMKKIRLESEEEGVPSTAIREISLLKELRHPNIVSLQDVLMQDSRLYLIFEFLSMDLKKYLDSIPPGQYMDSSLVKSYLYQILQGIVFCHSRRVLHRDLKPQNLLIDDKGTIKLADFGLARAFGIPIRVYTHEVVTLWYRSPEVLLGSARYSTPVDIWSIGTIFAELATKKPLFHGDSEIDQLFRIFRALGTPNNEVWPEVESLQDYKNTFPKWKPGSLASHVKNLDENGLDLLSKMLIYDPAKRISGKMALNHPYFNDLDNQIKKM
Sequence of Cyclin-dependent kinase/G2/mitotic-specific cyclin- 1 (P14635 whole entry, further chain): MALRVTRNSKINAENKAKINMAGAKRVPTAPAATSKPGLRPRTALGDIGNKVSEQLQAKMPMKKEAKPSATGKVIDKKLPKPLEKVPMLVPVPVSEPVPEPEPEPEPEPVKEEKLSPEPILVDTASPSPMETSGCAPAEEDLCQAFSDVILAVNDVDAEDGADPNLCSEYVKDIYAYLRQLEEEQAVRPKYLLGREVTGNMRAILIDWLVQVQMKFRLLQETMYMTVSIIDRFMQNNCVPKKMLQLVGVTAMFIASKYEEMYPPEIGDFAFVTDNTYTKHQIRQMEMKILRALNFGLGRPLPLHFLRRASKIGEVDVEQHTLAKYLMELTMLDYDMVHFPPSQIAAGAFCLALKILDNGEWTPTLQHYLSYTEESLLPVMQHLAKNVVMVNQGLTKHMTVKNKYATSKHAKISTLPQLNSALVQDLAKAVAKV
Sequence of Cyclin-dependent kinase 4/G1/S-specific cyclin-D1 (P11802 whole entry): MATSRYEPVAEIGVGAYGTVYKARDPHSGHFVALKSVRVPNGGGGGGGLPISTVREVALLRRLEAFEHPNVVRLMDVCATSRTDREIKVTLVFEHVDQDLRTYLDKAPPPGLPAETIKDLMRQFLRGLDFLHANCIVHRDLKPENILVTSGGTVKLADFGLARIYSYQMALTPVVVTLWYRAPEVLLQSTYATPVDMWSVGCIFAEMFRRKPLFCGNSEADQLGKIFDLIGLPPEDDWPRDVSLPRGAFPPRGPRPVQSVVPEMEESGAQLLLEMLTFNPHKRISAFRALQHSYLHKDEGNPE
Sequence of Cyclin-dependent kinase 4/G1/S-specific cyclin-D1 (P24385 whole entry, further chain): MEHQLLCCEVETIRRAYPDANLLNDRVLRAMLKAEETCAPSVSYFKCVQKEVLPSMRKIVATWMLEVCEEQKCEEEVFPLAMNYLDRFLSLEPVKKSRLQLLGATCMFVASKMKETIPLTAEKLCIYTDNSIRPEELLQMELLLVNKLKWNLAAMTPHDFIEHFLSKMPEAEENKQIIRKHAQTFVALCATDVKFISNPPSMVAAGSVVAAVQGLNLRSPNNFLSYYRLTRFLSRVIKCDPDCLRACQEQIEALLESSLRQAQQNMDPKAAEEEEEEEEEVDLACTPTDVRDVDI

## CS(=O)(=O)N1CCC(Nc2ncc3cccc(N4CCC(N5CCC5)C4)c3n2)CC1 (stereo not drawn) [US20240092761, Compound 32]
[1]
  IC50: > 2000 nM
[2]
  IC50: 200 to 500 nM
[3]
  IC50: < 200 nM
